In BindingDB's records for doi:10.1021/jm0503751 (University of Dublin, 2006):

Key:
[1] = molecular target: T1, Alpha-1A adrenergic receptor (Homo sapiens, UniProt P35348)
T1 sequence (P35348 whole entry): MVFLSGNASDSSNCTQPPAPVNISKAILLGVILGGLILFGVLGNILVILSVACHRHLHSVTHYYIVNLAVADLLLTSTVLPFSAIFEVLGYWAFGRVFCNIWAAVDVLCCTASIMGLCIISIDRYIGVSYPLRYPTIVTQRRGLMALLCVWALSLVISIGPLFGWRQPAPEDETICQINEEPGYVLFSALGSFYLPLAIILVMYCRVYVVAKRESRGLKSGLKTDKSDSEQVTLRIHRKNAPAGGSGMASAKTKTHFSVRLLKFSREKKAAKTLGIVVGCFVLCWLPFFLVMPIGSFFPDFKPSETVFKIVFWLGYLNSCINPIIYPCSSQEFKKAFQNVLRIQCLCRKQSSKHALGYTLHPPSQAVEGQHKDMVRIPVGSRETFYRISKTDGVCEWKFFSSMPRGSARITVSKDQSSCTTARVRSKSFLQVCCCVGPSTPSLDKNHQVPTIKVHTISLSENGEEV

[2] = molecular target: T2, Alpha-1B adrenergic receptor (Mus musculus, UniProt Q05D47)
T2 sequence (Q05D47 whole entry): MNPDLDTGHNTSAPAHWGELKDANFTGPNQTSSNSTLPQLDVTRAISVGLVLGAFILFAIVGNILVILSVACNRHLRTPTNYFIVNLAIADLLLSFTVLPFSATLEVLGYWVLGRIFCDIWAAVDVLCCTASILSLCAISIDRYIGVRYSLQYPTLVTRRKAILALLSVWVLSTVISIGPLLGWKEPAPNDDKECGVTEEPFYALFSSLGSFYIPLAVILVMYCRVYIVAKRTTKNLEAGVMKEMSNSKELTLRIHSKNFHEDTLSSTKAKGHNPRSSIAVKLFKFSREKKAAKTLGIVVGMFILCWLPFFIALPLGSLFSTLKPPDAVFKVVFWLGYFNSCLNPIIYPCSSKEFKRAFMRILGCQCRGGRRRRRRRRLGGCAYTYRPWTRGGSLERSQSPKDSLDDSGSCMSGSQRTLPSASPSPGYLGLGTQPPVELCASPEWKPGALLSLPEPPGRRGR

| Ki [1] [nM] | Ki [2] [nM] | SMILES |
| --- | --- | --- |
| 100 | 79 | Cc1c[nH]c(=O)n(CCCN2CCN(c3ccc(F)cc3OCC(F)(F)F)CC2)c1=O |
| – | 2 | COc1cc2nc(N3CCN(C(=O)C4CCCO4)CC3)nc(N)c2cc1OC (centres undefined) [6,7-dimethoxy-2-[4-(tetrahydrofuran-2-ylcarbonyl)piperazin-1-yl]quinazolin-4-amine] |
| – | 10 | COc1cc2nc(N(C)CCCNC(=O)C3CCCO3)nc(N)c2cc1OC (centres undefined) [N-{3-[(4-amino-6,7-dimethoxyquinazolin-2-yl)(methyl)amino]propyl}tetrahydrofuran-2-carboxamide] |
| – | 1 | COc1cc2nc(N3CCN(C(=O)C4COc5ccccc5O4)CC3)nc(N)c2cc1OC (centres undefined) [UK 33,274] |
| 10 | 40 | COc1ccccc1N1CCN(CCCNc2c(C)c(=O)n(C)c(=O)n2C)CC1 [Urapidil-5-methyl] |

| SMILES | Ki [1] [nM] | Ki [2] [nM] |
| --- | --- | --- |
| CC(C)(Cc1c[nH]c2ccc(Cl)cc12)NCCOc1ccccc1OCC1CC1 | 16 | 16 |
